ChEMBL document CHEMBL1122922, “Inhibition of muscarinic receptor binding and acetylcholine-induced contraction of guinea pig ileum by analogues of 5'-(isobutylthio)adenosine” (J Med Chem, 1985)

Target: Muscarinic acetylcholine receptor
Assay: Ability to inhibit binding of [3H]QNB to Muscarinic acetylcholine receptor in cultured N4TG1 neuroblastoma cells at 1e-8 to 1e-3 M

I 50	Compound
210 µM	CC(C)CSCC1CC(n2cnc3c(N)nccc32)C(O)C1O (centres undefined)
52 µM	CC(C)CSC[C@H]1OC(n2cnc3c(N)ccnc32)[C@H](O)[C@@H]1O (some centres undefined)
39 µM	CC(C)CSC[C@H]1OC(n2cnc3c(N)nccc32)[C@H](O)[C@@H]1O (some centres undefined)
1500 µM	CC(C)CSC[C@H]1OC(n2cnc3c(N)ncnc32)[C@H](O)[C@@H]1O (some centres undefined)
